Data as given in patent US8546395B2, “6-cycloamino-3-(1H-pyrrolo[2,3-b]pyridin-4-yl)imidazo[1,2-b]pyridazine derivatives, preparation thereof and therapeutic use thereof” (Sanofi, priority 2008, dated 2013).
pIC50: −log10 of the molar value.

Legend:
[1] = target: T1, casein kinase 1 epsilon (CK1 epsilon) (Homo sapiens, UniProt P49674); test: Filter-plate assay of ATP-33P for CK1 epsilon inhibitors (phosphorylation of casein); format: biochemical; conditions: casein substrate, ATP-33P with 10 μM cold ATP, 2 hours at ambient temperature
T1 construct: Invitrogen Corporation (as an alternative)
Description: The capacity of the compounds of the invention to inhibit the phosphorylation of casein by casein kinase 1 epsilon and delta may be evaluated according to the procedure described in US 2005/0131012.
Filter-Plate Assay of ATP-^33P for the Screening of CK1 Epsilon Inhibitors:
The effect of the compounds on inhibition of the phosphorylation of casein by the enzyme casein kinase 1 epsilon (CK1 epsilon) is measured, using a casein assay with filtration of ATP-^33P in vitro.
Casein kinase 1 epsilon (0.58 mg/ml) is obtained via fermentation and purification processes performed according to methods that are well known to those skilled in the art, or may also be obtained from Invitrogen Corporation™ (human CK1 epsilon).
The compounds are tested at five different concentrations so as to generate IC50 values, i.e. the concentration at which a compound is capable of inhibiting the enzymatic activity by 50%, or alternatively the percentage of inhibition at a concentration of 10 micromolar.
“U”-bottomed Falcon plates are prepared by placing 5 μL of solutions of the compounds according to the invention at concentrations of 10, 1, 0.1, 0.01 or 0.001 μM in various wells. The solutions of the compounds according to the invention at these various concentrations are prepared by diluting in a test buffer (50 mM Tris, pH 7.5, […], 2 mM DTT and 1 mM EGTA) a stock solution in DMSO at a concentration of 10 mM. Next, 5 μL of dephosphorylated casein are added to a final concentration of 0.2 μg/μL, 20 μl of CK1 epsilon to a final concentration of 3 ng/μl, and 20 μl of ATP-^33P to a final concentration of 0.02 μCi/μl mixed with cold ATP (10 μM final—approximately 2×10^6 CPM per well). The final total test volume per well is equal to 50 μl.
The “U”-bottomed Falcon® test plate mentioned above is vortexed, and then incubated at ambient temperature for 2 hours. After 2 hours, the reaction is stopped by adding an ice-cold solution of 65 μl of ATP (2 mM) prepared in test buffer.
100 μl of the reaction mixture are then transferred from the “U”-bottomed Falcon® plate into Millipore® MAPH filter plates, preimpregnated with 25 μl of ice-cold 100% TCA. […]
The plates are left to dry overnight at ambient temperature. […] The radiation emitted by each well is then measured for 2 minutes in a Packard® Topcount NXT scintillation counter, in which the values of CPM/well are measured.
The percentage inhibition of the capacity of the enzyme to phosphorylate the substrate (casein) is determined for each concentration of compound tested. These inhibition data expressed as percentages are used to calculate the IC50 value for each compound compared with the controls.
The kinetic studies determined the KM value for ATP as being 21 μM in this test system.

T1 sequence (P49674 whole entry): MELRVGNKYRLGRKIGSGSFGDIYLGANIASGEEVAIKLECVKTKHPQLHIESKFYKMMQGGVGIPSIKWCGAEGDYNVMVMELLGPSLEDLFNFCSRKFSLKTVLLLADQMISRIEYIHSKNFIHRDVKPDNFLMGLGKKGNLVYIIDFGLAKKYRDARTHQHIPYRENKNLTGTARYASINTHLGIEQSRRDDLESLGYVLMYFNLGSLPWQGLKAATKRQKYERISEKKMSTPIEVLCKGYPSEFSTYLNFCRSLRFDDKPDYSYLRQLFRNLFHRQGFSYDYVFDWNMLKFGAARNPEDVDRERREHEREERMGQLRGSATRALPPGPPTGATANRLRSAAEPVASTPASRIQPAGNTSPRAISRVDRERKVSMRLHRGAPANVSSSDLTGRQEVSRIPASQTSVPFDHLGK

Fc1ccc(-c2nc3ccc(N4CCC(N5CCCC5)CC4)nn3c2-c2ccnc3[nH]ccc23)cc1 [Compound 36, 2-(4-Fluorophenyl)-6-(4-pyrrolidin-1-ylpiperidin-1-yl)-3-(1H-pyrrolo[2,3-b]pyridin-4-yl)imidazo[1,2-b]pyridazine]
melting point: 261 to 264 °C
pIC50 [1]: 8.10 to 8.30
